Assay results: US11952364B2, “TRK inhibitors useful as anticancer drugs” (TYLIGAND BIOSCIENCE (SHANGHAI) LIMITED, priority 2018, dated 2024)
Read-outs that look alike come from different tables or passages of the source.

Test system: Ba/F3 ETV6-NTRK3-G696C cells
Assay: Proliferation of Ba/F3 ETV6-NTRK3-G696C cells (CellTiter-Glo)
Assay type: cell-based, mouse
Settings: Mus musculus, read-out: Ba/F3 ETV6-NTRK3-G696C, IC50
Description: Ba/F3 ETV6-NTRK3-G696C is a stable transgenic cell line constructed by KYinno Biotechnology Co., Ltd. on mouse primary B cell Ba/F3 wherein NTRK3 is highly expressed with a mutation of G at position […] to C and fused with ETV6 to form ETV6-NTRK3. • [Test method]: Promega's CellTiter-Glo® Luminescent Cell Viability Assay kit was used to evaluate the inhibitory activity of the compounds on the proliferation of Ba/F3 ETV6-NTRK3-G696C cells. • [Instrument]: Spectramax M3 multifunctional microplate reader from Molecular Devices. • [Test materials]: Ba/F3 ETV6-NTRK3-G696C cell line (constructed by KYinno Biotechnology Co., Ltd. (Beijing)), 96-well transparent flat-bottomed black-walled cell culture plate (Corning, cat #3603), RPMI-1640 media (GE, product number #SH30027.01), fetal bovine serum FBS (Thermo Fisher, cat #10099-141), CellTiter-Glo® Luminescent Cell Viability Assay kit (Promega, cat #G7572), PBS (Solarbio, cat #P1020), DMSO (Sigma, cat #D2650). • [Experimental procedure]: When resuscitating Ba/F3 ETV6-NTRK3-G696C cells, • the freezing tube was quickly shaken in a 37° C. water bath to melt within 1 minute. The thawed cell suspension was mixed uniformly with RPMI1640 medium containing 10% FBS, centrifuged at 1000 rpm for 5 minutes, and the supernatant discarded. 5 mL of complete medium (RPMI1640 medium with 10% FBS) was taken to resuspend the cell pellets, charged into a cell culture flask with a bottom area of 25 cm^2, and incubated in a cell incubator at 37° C., 95% humidity and 5% CO2. Cells were allowed to passage when the number of cells reached about 10^6 cells/mL. For cell passage, the old cell suspension was directly pipetted evenly, 1/5 of the cell suspension was kept, 4 mL of new complete medium was added, after pipetting evenly, the cell flask was placed in the cell incubator for further culturing. Cell plating was performed when the number of cells reached about 10^6 cells/mL again. For cell plating, 1/5 of the cell suspension was kept for further culturing as in the cell passage method, and the remaining 4/5 of the cell suspension was placed in a 15 mL centrifuge tube, detected for cell viability by Trypan blue exclusion method to ensure that cell viability was above 90%. A cell suspension with a density of 5.56×10^4 viable cells/mL was prepared with complete medium, and 90 μL of such cell suspension was added to a 96-well cell culture plate to obtain the cell density of 5000 viable cells/mL in the cell culture plate. A control group containing no cells, no compound and only complete medium (i.e. culture medium control) and a control group containing no compound but containing cells (i.e. cell control) were set. The cell plate was placed in a cell incubator overnight. The 10 mM compound stock solution in DMSO was first serially diluted with DMSO at a dilution factor of 3.16 times, to obtain 9 concentrations, and the 10th concentration was set as DMSO control without compound. Then, PBS was used to dilute the DMSO solutions of compounds of different concentrations, at a dilution factor of 100 times, so that the DMSO concentration in the compound solution of each concentration was 1%. Finally, 10 μL of each of the above solutions was added to the corresponding cell culture plate, so that the initial compound concentration was 10 μM, with the remaining concentrations being successively diluted at a dilution factor of 3.16 times, and the DMSO content in the cell culture plate was 0.1%. The cell plate was placed in a cell incubator and cultured for 72 hours. For endpoint detection, the CellTiter-Glo reagent was melted, and the cell plate was moved to room temperature to equilibrate for 30 minutes, added with 100 μL of CellTiter-Glo for each well, and shaken on an orbital shaker for 5 minutes to fully lyse the cells. […]

Structure (SMILES) | IC50 (BaF3, 72 h, Table 7, 72 hours) | IC50 (BaF3, Table 7-2, separate test)
CCn1ncc2cc(Oc3ccc(NC(=O)c4ccc(C)n(-c5ccc(F)cc5)c4=O)cc3F)c(-c3cn[nH]c3)cc21 [Example 3, N-(3-fluoro-4-(1-ethyl-6-(1H-pyrazol-4-yl)-1H-indazol-5-yloxy)phenyl)-1-(4-fluorophenyl)-6-methyl-2-oxo-1,2-dihydmpyridine-3-carboxamide] | 18 nM | 
Cn1ncc2cc(Oc3ccc(NC(=O)c4ccc(OC5CC5)n(-c5ccc(F)cc5)c4=O)cc3F)c(-c3cn[nH]c3)cc21 [Example 15, N-(3-fluoro-4-(1-methyl-6-(1H-pyrazol-4-yl)-1H-indazol-5-yloxy)phenyl)-1-(4-fluorophenyl)-6-cyclopropoxy-2-oxo-1,2-dihydropyridine-3-carboxamide] |  | 1.9 nM
